Compound in assay [1]: CCC1=C[C@@H]2CN(C1)Cc1c([nH]c3ccccc13)[C@@](C(=O)OC)(c1cc3c(cc1OC)N(C)[C@H]1[C@@](O)(C(=O)OC)[C@H](OC(C)=O)[C@]4(CC)C=CCN5CC[C@]31[C@@H]54)C2 [VINORELBINE]
Description: surviving fraction relative to DMSO-only wells; higher = less growth inhibition. To be noted: exposure time: 5 days. Put shortly: (§1)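 Lines were retained only if, across three screens, replicate Pearson r was >0.7 and median Z' was >0.3. Viability was measured as CellTiter-Glo luminescence and reported as surviving fraction relative to the median of DMSO-only wells. Readings followed 10 minutes at room temperature, after log-phase tumour cells seeded at 250–500 per well in 384-well plates had been exposed, from 24 hours after seeding, continuously for five days to inhibitors at 0.5, 1, 5, 10, 50, 100, 500 and 1000 nM.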

Compound in assay [2]: CCN(CC)CCNC(=O)c1c(C)[nH]c(/C=C2\C(=O)Nc3ccc(F)cc32)c1C [SUNITINIB]
Described as above. Conditions: exposure time: 5 days. The procedure, abridged:
as §1

± gives the standard deviation of the averaged measurements.

In the case of SG31 HEADNECK, the surviving fraction in assay [1] (0.5 nM) was 1.08 ± 0.15; in assay [1] (1 nM), 1.19 ± 0.14; in assay [1] (5 nM) it was 0.848 ± 0.12; in assay [1] (10 nM), 0.82 ± 0.11; in assay [1] (50 nM), 0.369 ± 0.04; in assay [1] (100 nM), 0.315 ± 0.021. Also, the surviving fraction in assay [1] (500 nM) amounted to 0.308 ± 0.057; in assay [1] (1000 nM), 0.38 ± 0.072; in assay [2] (0.5 nM), 0.778 ± 0.067; in assay [2] (1 nM), 0.858 ± 0.037; in assay [2] (5 nM), 0.884 ± 0.12; in assay [2] (10 nM), 0.419 ± 0.04. Also, the surviving fraction in assay [2] (50 nM) amounted to 0.93 ± 0.06; in assay [2] (100 nM) it was 0.962 ± 0.14; in assay [2] (500 nM), 0.797 ± 0.13; in assay [2] (1000 nM) it was 0.343 ± 0.017.
On to SG32 HEADNECK, for which the surviving fraction was 1.32 ± 0.21 in assay [1] (0.5 nM); 1.18 ± 0.3 in assay [1] (1 nM); 0.81 ± 0.042 in assay [1] (5 nM); 0.621 ± 0.047 in assay [1] (10 nM); 0.258 ± 0.041 in assay [1] (50 nM); 0.302 ± 0.053 in assay [1] (100 nM). In addition, the surviving fraction was found to be 0.409 ± 0.076 in assay [1] (500 nM); 0.437 ± 0.048 in assay [1] (1000 nM); 0.578 ± 0.032 in assay [2] (1 nM); 0.771 ± 0.13 in assay [2] (5 nM); 0.423 ± 0.078 in assay [2] (10 nM); 0.96 ± 0.045 in assay [2] (50 nM). In addition, the surviving fraction was found to be 0.609 ± 0.062 in assay [2] (100 nM), 0.317 ± 0.048 in assay [2] (500 nM) and 0.0993 ± 0.011 in assay [2] (1000 nM).
For the test system SG43 HEADNECK, the surviving fraction in assay [1] (0.5 nM) was determined as 1.04 ± 0.14; in assay [1] (1 nM) it was 1.13 ± 0.097; in assay [1] (5 nM), 0.785 ± 0.095; in assay [1] (10 nM), 0.669 ± 0.075; in assay [1] (50 nM), 0.47 ± 0.036; in assay [1] (100 nM), 0.364 ± 0.093. Also, the surviving fraction was 0.242 ± 0.066 in assay [1] (500 nM); 0.138 ± 0.066 in assay [1] (1000 nM); 1.27 ± 0.13 in assay [2] (0.5 nM); 1.25 ± 0.068 in assay [2] (1 nM); 0.975 ± 0.18 in assay [2] (5 nM); 0.824 ± 0.12 in assay [2] (50 nM). In addition, the results for the surviving fraction in assay [2] (100 nM), in assay [2] (500 nM) and in assay [2] (1000 nM) were 1.02 ± 0.13, 0.982 ± 0.09 and 1.52 ± 0.029, respectively.
For the test system SIHA CERVIX, the surviving fraction was determined as 1.09 ± 0.064 in assay [1] (0.5 nM); 1.14 ± 0.13 in assay [1] (1 nM); 1.12 ± 0.027 in assay [1] (5 nM); 1.03 ± 0.064 in assay [1] (10 nM); 0.324 ± 0.016 in assay [1] (50 nM); 0.277 ± 0.085 in assay [1] (100 nM). The surviving fraction in assay [1] (500 nM) was 0.341 ± 0.022; in assay [1] (1000 nM), 0.327 ± 0.055; in assay [2] (0.5 nM), 0.957 ± 0.088; in assay [2] (5 nM), 0.972 ± 0.04; in assay [2] (10 nM), 0.984 ± 0.028; in assay [2] (50 nM) it was 1.11 ± 0.047. Also, the surviving fraction in assay [2] (100 nM) is 1.02 ± 0.086; in assay [2] (500 nM), 0.725 ± 0.026; in assay [2] (1000 nM) it was 0.418 ± 0.04.
As for SJSA1 BONE, the surviving fraction in assay [1] (0.5 nM) came to 1.03 ± 0.021; in assay [1] (1 nM) it was 1 ± 0.041; in assay [1] (5 nM) it was 1.04 ± 0.076; in assay [1] (10 nM) it was 0.971 ± 0.033; in assay [1] (50 nM), 0.499 ± 0.029; in assay [1] (100 nM), 0.211 ± 0.022. Moreover, the surviving fraction in assay [1] (500 nM) was 0.0877 ± 0.009; in assay [1] (1000 nM), 0.0907 ± 0.0081; in assay [2] (1 nM), 0.869 ± 0.017; in assay [2] (10 nM), 0.872 ± 0.022; in assay [2] (50 nM) it was 1.02 ± 0.038; in assay [2] (500 nM) it was 0.8283 ± 0.0078. Also, the surviving fraction in assay [2] (1000 nM) was determined as 0.579 ± 0.011.
On to SKBR3 BREAST, for which the surviving fraction in assay [1] (0.5 nM) came out at 0.957 ± 0.093; in assay [1] (1 nM), 1.17 ± 0.035; in assay [1] (5 nM), 0.532 ± 0.12; in assay [1] (10 nM), 0.291 ± 0.058; in assay [1] (50 nM), 0.146 ± 0.013; in assay [1] (100 nM), 0.156 ± 0.019. Further, the surviving fraction worked out at 0.179 ± 0.0087 in assay [1] (500 nM); 0.182 ± 0.015 in assay [1] (1000 nM); 0.795 ± 0.073 in assay [2] (1 nM); 0.738 ± 0.1 in assay [2] (5 nM); 0.696 ± 0.12 in assay [2] (10 nM); 0.875 ± 0.035 in assay [2] (50 nM). In addition, the values for the surviving fraction in assay [2] (100 nM), in assay [2] (500 nM) and in assay [2] (1000 nM) were 0.867 ± 0.084, 0.64 ± 0.064 and 0.492 ± 0.014, respectively.
For SNU475 LIVER, the surviving fraction in assay [1] (0.5 nM) came out at 0.982 ± 0.019; in assay [1] (1 nM), 0.998 ± 0.011; in assay [1] (5 nM), 1.01 ± 0.029; in assay [1] (10 nM), 1 ± 0.038; in assay [1] (50 nM) it was 0.386 ± 0.041; in assay [1] (100 nM), 0.197 ± 0.021. The surviving fraction was 0.17 ± 0.019 in assay [1] (500 nM); 0.204 ± 0.032 in assay [1] (1000 nM); 0.729 ± 0.052 in assay [2] (1 nM); 0.814 ± 0.049 in assay [2] (5 nM); 0.371 ± 0.031 in assay [2] (10 nM); 0.8163 ± 0.0045 in assay [2] (100 nM). For the same test system, the surviving fraction in assay [2] (500 nM) is 0.752 ± 0.022; in assay [2] (1000 nM), 0.193 ± 0.01.
For the test system SUM44 BREAST, the surviving fraction in assay [1] (0.5 nM) was found to be 1.01 ± 0.068; in assay [1] (1 nM) it was 0.972 ± 0.034; in assay [1] (5 nM), 0.668 ± 0.068; in assay [1] (10 nM), 0.387 ± 0.024; in assay [1] (50 nM), 0.258 ± 0.013; in assay [1] (100 nM), 0.225 ± 0.023. The surviving fraction worked out at 0.264 ± 0.014 in assay [1] (500 nM); 0.256 ± 0.024 in assay [1] (1000 nM); 0.82 ± 0.065 in assay [2] (0.5 nM); 0.877 ± 0.02 in assay [2] (1 nM); 0.966 ± 0.061 in assay [2] (5 nM); 0.915 ± 0.04 in assay [2] (10 nM). The surviving fraction in assay [2] (50 nM) was 1.07 ± 0.076; in assay [2] (100 nM) it was 1.11 ± 0.023; in assay [2] (1000 nM), 0.958 ± 0.013.
Take SUM149 BREAST: the surviving fraction in assay [1] (0.5 nM) was found to be 1.07 ± 0.072; in assay [1] (1 nM), 1.11 ± 0.038; in assay [1] (5 nM) it was 1.03 ± 0.059; in assay [1] (10 nM), 0.768 ± 0.076; in assay [1] (50 nM) it was 0.052 ± 0.0027; in assay [1] (100 nM), 0.0443 ± 0.0076. Further, the surviving fraction in assay [1] (500 nM) is 0.0563 ± 0.0047; in assay [1] (1000 nM), 0.061 ± 0.0046; in assay [2] (0.5 nM), 0.797 ± 0.036; in assay [2] (1 nM), 0.755 ± 0.016; in assay [2] (5 nM) it was 0.884 ± 0.052; in assay [2] (10 nM), 0.213 ± 0.016. The surviving fraction came to 0.906 ± 0.061 in assay [2] (50 nM), 0.756 ± 0.039 in assay [2] (100 nM), 0.619 ± 0.017 in assay [2] (500 nM) and 0.176 ± 0.01 in assay [2] (1000 nM).

(Values after the supplement of paper PMC6045584.)
